Values after ≈ are worked out from the molar mass of the structure shown.
Legend:
[1] = Cytotoxicity against African green monkey Vero E6 cells assessed as reduction in cell viability measured for 3 days by CCK-8 assay; assay type: toxicity, cell-based; details: chlorocebus sabaeus, Vero E6 cells (Vero C1008); time 3 day
[2] = Inhibition of Influenza A virus H5N1 neuraminidase
[3] = test system: Human immunodeficiency virus 1; test: Antiviral activity against wild type HIV-1 NL4-3 infected in human MT4 cells assessed as reduction in viral replication; assay type: functional, organism-based; details: Human immunodeficiency virus 1, NL4-3, MT4
[4] = test system: Sindbis virus; test: Antiviral activity against Sindbis virus infected in African green monkey Vero cells assessed as reduction in virus induced cytopathic effect; assay type: functional, organism-based
[5] = test system: Zika virus; test: Antiviral activity against Zika virus infected in African green monkey Vero cells assessed as reduction in virus induced cell death; assay type: functional, organism-based
[6] = test system: SARS-CoV-2; assay type: functional, organism-based; details: Severe acute respiratory syndrome coronavirus 2, Wuhan-Hu-1, Vero C1008
[7] = biological target: T1, Human immunodeficiency virus type 1 integrase (Human immunodeficiency virus 1, UniProt Q7ZJM1); test: Inhibition of HIV-1 integrase
T1 sequence (Q7ZJM1 whole entry): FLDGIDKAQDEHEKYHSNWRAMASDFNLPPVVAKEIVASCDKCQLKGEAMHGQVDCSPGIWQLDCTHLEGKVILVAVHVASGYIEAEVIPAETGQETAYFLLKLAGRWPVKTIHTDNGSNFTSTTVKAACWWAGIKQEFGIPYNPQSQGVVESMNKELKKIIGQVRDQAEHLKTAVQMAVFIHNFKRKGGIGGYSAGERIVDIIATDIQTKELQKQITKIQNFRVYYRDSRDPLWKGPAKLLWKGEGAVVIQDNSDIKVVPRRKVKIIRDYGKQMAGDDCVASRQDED

[8] = test system: Human immunodeficiency virus 1; test: Antiviral activity against HIV-1 infected in human MT4 cells assessed as reduction in viral replication; assay type: functional, organism-based; details: Human immunodeficiency virus 1, MT4
[9] = Inhibition of Influenza A virus A/California/04/2009 (H1N1) domain of PA endonuclease expressed in Escherichia coli BL21 (DE3) cells
[10] = test system: Influenza A virus; test: Antiviral activity against Influenza virus […] (A/California/07/2009 pdm09) infected in human Calu-3 cells assessed as viral RNA measured after 3 days by RT-PCR assay; assay type: functional, organism-based; details: Calu-3, 72 h
[11] = test system: SARS-CoV-2; assay type: functional, organism-based; details: Severe acute respiratory syndrome coronavirus 2, Wuhan-Hu-1, Vero C1008; remark: listed apart in the source
[12] = test system: Respiratory syncytial virus; test: Antiviral activity against RSV-A2 infected in human HEp-2 cells incubated for 4 days by Cell Titer Glo assay; assay type: functional, organism-based; details: A2, HEp-2, 96 h
[13] = test system: Potato virus Y; test: Antiviral activity against Potato Virus Y; assay type: functional, organism-based
[14] = Inhibition of N-terminal SARS-CoV-2 Main protease using ESATLQSGLRKAK-QXL-NH2 as substrate incubated for 60 mins by FRET assay; parameters: species or system Severe acute respiratory syndrome coronavirus 2
[15] = test system: SARS-CoV-2; assay type: functional, organism-based, Vero E6; details: Severe acute respiratory syndrome coronavirus 2, Vero C1008, 48 h
[16] = test system: Venezuelan equine encephalitis virus; test: Antiviral activity against VEEV TC-83 infected in human U-87 MG cells assessed as reduction in viral replication; assay type: functional, organism-based; details: TC-83, U-87 MG
[17] = test system: SARS-CoV-2; assay type: functional, organism-based, Vero E6; details: Severe acute respiratory syndrome coronavirus 2, Vero C1008, 48 h; remark: listed apart in the source
[18] = test system: Respiratory syncytial virus; test: Antiviral activity against RSV-A infected in human A549 cells at 0.01 MOI assessed as inhibition of virus induced cytopathic effect […] by MTT assay; assay type: functional, organism-based
[19] = test system: Human immunodeficiency virus 1; test: Antiviral activity against HIV-1 IIIB infected in human C8166 cells assessed as reduction in viral replication; assay type: functional, organism-based; details: Human immunodeficiency virus 1, IIIB
[20] = biological target: T1, Human immunodeficiency virus type 1 integrase; test: Inhibition of recombinant HIV-1 integrase by strand transfer activity
[21] = test system: Tobacco mosaic virus; test: Antiviral activity against Tobacco mosaic virus; assay type: functional, organism-based
[22] = test system: Vesicular stomatitis virus; test: Antiviral activity against Vesicular stomatitis virus; assay type: functional, organism-based
[23] = test system: Respiratory syncytial virus; test: Antiviral activity against Respiratory syncytial virus; assay type: functional, organism-based; details: human respiratory syncytial virus
[24] = test system: SARS-CoV-2; assay type: functional, organism-based, Vero E6; details: Severe acute respiratory syndrome coronavirus 2, Vero C1008
[25] = test system: C8166; test: Cytotoxicity against human C8166 cells assessed as reduction in cell viability incubated for 3 days by MTT assay; assay type: functional; details: C8166, 72 h, time 3 day
[26] = test system: Human respirovirus 1; test: Antiviral activity against Human parainfluenza virus 1 infected in Vero cells assessed as reduction in viral replication at 10 ug/ml relative to control; assay type: functional; parameters: scale not given: the % may be the effect or the level left; details: dose 10 µg/ml
[27] = Inhibition of Zika virus NS5 RNA dependent RNA polymerase
[28] = Cytotoxicity against African green monkey Vero cells assessed as reduction in cell viability measured after 72 hrs by MTT assay; assay type: toxicity, cell-based; details: chlorocebus sabaeus
[29] = Toxicity in African green monkey Vero cells assessed as reduction in cell viability incubated for 3 days by MTT assay; assay type: cell-based; details: chlorocebus sabaeus, time 3 day, read-out: TC50
[30] = test system: Human alphaherpesvirus 2; test: Antiviral activity against HSV-2 infected in African green monkey Vero cells assessed as reduction in virus-induced cytopathic effect incubated for 3 days by MTT assay; assay type: functional, organism-based; details: Human alphaherpesvirus 2, Vero, 72 h

Compound: COc1cccc2[nH]c(C(=O)N[C@@H](CC(C)C)C(=O)N[C@@H](C[C@@H]3CCNC3=O)C(=O)c3nc4ccccc4s3)cc12
- CC50 at 72 h [1]: > 100 µM

Compound: CC1=NCCc2c1[nH]c1ccccc21
- IC50 [2]: 0.023 µg/mL (≈ 0.125 µM)

Compound: COP(=O)(c1cc(C)cc(OCC#N)c1)c1c(C(N)=O)[nH]c2ccc(Cl)cc12 (configuration not stated)
- EC50 [3]: 0.08 nM

Compound: NS(=O)(=O)c1ccc(NC(=S)N/N=C2\C(=O)Nc3ccc(Br)cc32)cc1
- EC50 [4]: 3 µM

Compound: NS(=O)(=O)c1ccc(NC(=S)N/N=C2\C(=O)Nc3ccc(OC(F)(F)F)cc32)cc1
- EC50 [4]: 2 µM

Compound: O=C(NCC1CCNCC1)c1cc2ccc(-c3ccoc3)cc2[nH]1
- IC50 [5]: 0.37 µM

Compound: O=C1C[C@@H]2OCC=C3CN4CC[C@]56c7ccccc7N1[C@H]5[C@H]2[C@H]3C[C@H]46.O=S(=O)(O)O
- IC50 [2]: 11.85 µg/mL

Compound: O=C(NCC1CCNCC1)c1c[nH]c2cc(-c3ccoc3)c(-c3ccoc3)cc12
- IC50 [6]: 3.8 µM

Compound: O=C(Oc1cncc(Cl)c1)c1cccc2c1CCN2
- CC50 at 72 h [1]: > 100 µM

Compound: O=C1c2c(ccc(O)c2O)CN1Cc1ccc(O)cc1
- IC50 [7]: 0.0075 µM
- EC50 [8]: ~4 µM
- IC50 [9]: 0.0075 µM
- EC50 [10]: ~4 µM

Compound: O=C1C(=O)N(Cc2cccc3ccccc23)c2ccc(Br)cc21
- EC50 [11]: 6.8 µM
- EC50 [12]: 6.8 µM

Compound: C#CCCn1ccc2c(C3=N[C@@H](C(C)C)CO3)cccc21
- EC50 [13]: 256 µg/mL (≈ 913 µM)

Compound: CCCCCCCCCCCCCCCCCc1nnc(SCCO)n1/N=C/c1cn(Cc2ccccc2)c2ccccc12
- IC50 [14]: 8.7 µM
- IC50 [15]: 87.6 µM

Compound: Cc1cncc(C#Cc2c[nH]c3ncc(-c4ccc(C(=O)NC5CC5)cc4)cc23)c1
- EC50 [16]: 1.8 µM
- EC50 [17]: 1.82 µM
- EC50 [18]: 0.18 µM

Compound: CCc1ccc(S(=O)(=O)n2cc(C(=O)CN3CCOCC3)c3ccc(C)cc32)cc1
- EC50 [19]: 9.42 µM

Compound: O=C(O)/C(O)=C/C(=O)c1cn(S(=O)(=O)C(=O)c2ccc(F)cc2)c2ccc(Br)cc12
- IC50 [20]: 0.2 µM

Compound: CCCCCCCCCCCCCCCCCc1nnc(SCC(O)CO)n1/N=C/c1cn(Cc2ccccc2)c2ccccc12 (configuration not stated)
- IC50 [14]: 8.93 µM
- IC50 [15]: 112 µM

Compound: CN1C(=O)/C(=N\NC(=S)Nc2ccc(S(N)(=O)=O)cc2)c2cc(OC(F)(F)F)ccc21
- EC50 [4]: > 20 µM

Compound: CCOC(=O)c1c(C)n(C)c2ccc(OCCCOc3ccc(C(=O)/C=C/c4ccc(C)cc4)cc3)cc12
- EC50 [21]: 107 µg/mL (≈ 210 µM)

Compound: Cc1ccc2c(c1)C(=O)C(=O)N2Cc1ccc2ccccc2c1
- EC50 [22]: 6.8 µM
- EC50 [23]: 6.8 µM

Compound: CCS(=O)(=O)N(c1ccc(C(=O)/C=C2/C(=O)Nc3ccccc32)cc1)S(=O)(=O)CC
- IC50 [24]: 3.42 µM

Compound: O=C(NCCc1ccc(N2CCCC2)cc1)c1[nH]c2ccc(Cl)cc2c1CO
- IC50 [6]: 3.42 µM

Compound: CS(=O)(=O)Oc1ccc(C(=O)/C=C2/C(=O)Nc3ccccc32)cc1
- IC50 [24]: 3.8 µM

Compound: O=C1C(=O)N(Cc2ccc3ccccc3c2)c2ccccc21
- IC50 [5]: 0.32 µM

Compound: O=C(NN1C(=O)CSC12CCCCC2)c1[nH]c2ccc(Cl)cc2c1-c1ccccc1
- EC50 [4]: 1.9 µM

Compound: CN1C(=O)/C(=N\NC(=S)Nc2ccc(S(N)(=O)=O)cc2)c2cc(F)ccc21
- EC50 [4]: > 4 µM

Compound: CCc1ccc(S(=O)(=O)n2cc(C(=O)CCc3nnc(-c4ccccc4)o3)c3ccc(C)cc32)cc1
- CC50 [25]: > 469 µM
- EC50 [19]: 4.62 µM

Compound: O=C(NCCc1ccc(N2CCOCC2)cc1)c1[nH]c2ccc(Cl)cc2c1CO
- IC50 [15]: 4.2 µM

Compound: Cc1ccc(S(=O)(=O)n2cc(C(=O)/C=C3\OC(C)(C)OC3=O)c3cc(Br)ccc32)cc1
- IC50 [20]: 5.7 µM

Compound: CC1CCCC2(C1)SCCN2NC(=O)c1[nH]c2ccc(S(N)(=O)=O)cc2c1-c1ccccc1 (configuration not stated)
- Activity [26]: 95.46%

Compound: CN1C(=O)/C(=N\NC(=S)Nc2ccc(S(N)(=O)=O)cc2)c2cc(Br)ccc21
- EC50 [4]: > 2 µM

Compound: O=C1C2Cc3ccccc3N2[C@@H](c2ccc(O)c(O)c2)N1Nc1ccc([N+](=O)[O-])cc1 (some centres not stated)
- IC50 [27]: 8.52 µM
- CC50 at 72 h [28]: > 100 µM

Compound: CCOc1ccc(C2=NN(C(N)=S)C(C3CN(Cc4ccc(C(F)(F)F)cc4)c4ccccc43)C2)cc1F (configuration not stated)
- EC50 [13]: 202 µg/mL (≈ 372 µM)

Compound: COc1ccc([C@H]2N(Nc3ccc([N+](=O)[O-])cc3)C(=O)C3Cc4ccccc4N32)cc1O[Si](C)(C)C(C)(C)C (mixture of isomers)
- IC50 [27]: 9.89 µM
- CC50 at 72 h [28]: > 100 µM

Compound: COc1ccc([C@H]2N(Nc3ccccc3)C(=O)C3Cc4ccccc4N32)cc1O[Si](C)(C)C(C)(C)C (mixture of isomers)
- IC50 [27]: 10.7 µM
- CC50 at 72 h [28]: > 100 µM

Compound: COc1ccc2c3c([nH]c2c1)C(C)=NCC3 [HARMALINE]
- IC50 [2]: 3.42 µg/mL (≈ 16 µM)

Compound: CC1=NCCc2c1[nH]c1cc(O)ccc21 [HARMALOL]
- IC50 [2]: 0.02 µg/mL (≈ 0.0999 µM)

Compound: CCOC(=O)c1c(CSc2ccccc2)n(C)c2cc(Br)c(O)c(CN(C)C)c12 [UMIFENOVIR]
- CC50 at 72 h [29]: 32.3 µg/mL (≈ 67.7 µM)
- IC50 [30]: 4.77 µg/mL (≈ 9.99 µM)

From ChEMBL document CHEMBL6153027, “Recent report on indoles as a privileged anti-viral scaffold in drug discovery” (Eur J Med Chem, 2025)
